Where two headings read alike, the source gives them in different places.
Experiments:
[1] = cited from earlier work; for LD50: modelling table; for Toxicity: toxicity grade by LD50, trailing figure = number of pesticides in group
[2] = target: T1, human serum albumin (HSA) (Homo sapiens, UniProt P02768); assay: Fluorescence emission spectrum (quenching) of HSA with carbamate pesticides; format: binding; details: for R (binding distance): Förster energy transfer; for fluorescence of HSA quenched by pesticide: titration of pesticide; for ΔH^0 / ΔS^0: Van't Hoff, 296-310 K
Method: the mixed solution to be tested was preheated at […] for 3 minutes, and the emission spectrum of HSA with carbamate pesticides was measured at 300-500 nm . The excitation wavelength was set at 280 nm , and the slit width for both excitation and emission was 15 nm; the HSA concentration was kept constant at 5×10^−7 M, and the pesticide concentration was (0-105)×10^−7 M.
The internal filtering effect of fluorescence signal was corrected according to the following formula: Fcor=Fobsexp[(Aex+Aem)/2] (1);
in this formula, Fcor and Fobs represent corrected fluorescence signal and observed fluorescence signal, respectively, and Aex and Aem represent absorbance of the mixed solution to be tested at excitation wavelength and emission wavelengths, respectively; the quenching constant, number of binding sites, binding constant, free energy and binding distance of different drugs were obtained by fluorescence emission spectra, and a BP neural network model was obtained. Specifically, they were obtained as follows:
There is a linear relationship between F0/F and [Q] to distinguish whether it is static quenching or dynamic quenching. The fluorescence quenching data are analyzed by Stern-Volmer equation to clarify the quenching mechanism: F0/F=1+KSV[Q]=1+Kqτ0[Q] (2);
in the formula, F0 and F are fluorescence signals […] quencher, respectively. Ksv is Stern-Volmer quenching constant; Kq is a quenching rate constant of biomolecules; τ0 is the average lifetime of biomolecules without quencher (about 10^−8 s); [Q] is the concentration of quencher.
The maximum dynamic quenching rate constant of all kinds of quenchers on polymers was 2.0×10^10 L·mol^−1·s^−1. Static quenching and dynamic quenching could be judged according to this value. If K^q was greater than 2.0×10^10 L·mol^−1·s^−1, it belonged to static quenching. Otherwise, it belonged to dynamic quenching.
In this part, the binding sites and binding constants between carbamate pesticides and HSA were calculated. The following formula was used to calculate the number of binding sites (n) and the binding constant (Ka) of carbamate pesticides and HSA: log[(F0−F)/F]=log Ka+nlog[Q] (3);
The interactions between biological molecules and drug molecules were weak intermolecular interactions, including hydrogen bonds, van der Waals forces, electrostatic forces and hydrophobic interactions. By using Van't Hoff equation, the thermodynamic constants of drug-protein interaction were obtained, and the main types of drug-protein interaction were judged according to the changes of binding constants under different conditions. LnK=−ΔH^0/RT+ΔS^0/R (4); ΔG^0=ΔH^0−TΔS^0 (5);
There is a relationship among energy transfer efficiency E, distance r between energy donor and energy receptor and energy transfer distance R0. E=1−F/F0=R0^6/(R0^6+r^6) (6);
E represents the transfer efficiency between donor and receptor, r is the average distance between donor and receptor, and R0 is the critical distance when the transfer efficiency is 50%. R0^6=8.79×10^−K^2N^−4φJ (7)
K^2 is the orientation related to the geometry of donor and receptor of dipole. For random orientation in fluid, K^2=2/3; N is the average refractive index of the medium in the wavelength range with obvious spectral overlap, and the refractive index of water and organic matter is 1.336; φ is the quantum yield of donor, and the quantum yield of tryptophan in HSA is about 0.118; J represents the influence of spectral overlap between the emission spectrum of the donor and the absorption spectrum of the receptor, and can be calculated by the following formula: j=ΣF(λ)ϵ(λ)λ^4Δλ/ΣF(λ) Δλ (8);
F(λ) is the corrected fluorescence signal of the donor in the wavelength range from λ to (λ+Δλ), while ϵ(λ) is the extinction coefficient of the receptor at λ.

[3] = target: T1, human serum albumin (HSA); assay: Circular dichroism spectrum, secondary structure (α-helix content) of HSA; details: HSA 2×10^−6 M
Method: the mixed solution to be tested was preheated at […] for 2-5 minutes, and the CD spectrum of HSA was recorded in the wavelength range of 200-500 nm . The concentration of HSA was kept at 2×10^−6 M, and the pesticide was (0-20)×10^−6 m. Firstly, HSA was measured, and then the ratio of HSA to pesticides needed to be determined specifically, which was preliminarily determined according to the ratio of 1:1, 1:2 and 1:3.
According to the following equation, the result of CD spectrum was usually expressed as the mean residue ellipticity (MRE), and the unit was deg·cm^2·dmol^−1. MRE=ObservedCD(mdeg)/(10Cpnl) (9);
in which Cp is the molar concentration of protein, n is the number (585) of amino acid residues, and 1 is the path length (1 mm). The α helicity of free and bound HSA is calculated from MRE values using the following formula: α−Helix(%)=[(−MRE208−4000)×100]/(33000-4000) (10)
in which the MRE208 is the MRE value observed at 208 nm , 4000 is the MRE value of random coil conformation at 208 nm , and […] is the MRE value of pure α helix at 208 nm .

[4] = 37°, modelling table, read-out: Ka (37°) (converted)
[5] = 296 K, test-set pesticides (Table 4)
[6] = 303 K, test-set pesticides (Table 4)
[7] = 310 K, test-set pesticides (Table 4)
[8] = 296 K, pH 7.4, read-out: Ka (binding constant)
[9] = 303 K, pH 7.4, read-out: Ka (binding constant)
[10] = 310 K, pH 7.4, read-out: Ka (binding constant)

T1 sequence (P02768 25-609): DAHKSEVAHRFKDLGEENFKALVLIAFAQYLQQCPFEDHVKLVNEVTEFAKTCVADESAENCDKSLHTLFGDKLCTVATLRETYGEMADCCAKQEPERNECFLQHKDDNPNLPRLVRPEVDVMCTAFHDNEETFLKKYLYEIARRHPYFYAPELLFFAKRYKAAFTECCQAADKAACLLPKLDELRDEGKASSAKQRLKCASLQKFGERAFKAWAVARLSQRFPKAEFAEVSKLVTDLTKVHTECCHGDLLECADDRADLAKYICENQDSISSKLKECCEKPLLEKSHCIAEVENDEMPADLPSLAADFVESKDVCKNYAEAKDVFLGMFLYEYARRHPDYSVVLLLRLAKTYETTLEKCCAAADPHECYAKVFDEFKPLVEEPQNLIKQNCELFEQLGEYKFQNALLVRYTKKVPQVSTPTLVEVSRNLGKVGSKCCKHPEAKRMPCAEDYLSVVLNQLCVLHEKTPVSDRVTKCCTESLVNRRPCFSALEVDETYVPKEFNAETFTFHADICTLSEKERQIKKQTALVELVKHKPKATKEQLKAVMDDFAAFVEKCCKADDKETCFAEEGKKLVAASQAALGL

Row | SMILES | LD50 [1] [mg/kg] | Toxicity [1] | Ksv (37°) ([2]; 37°, modelling table) | ΔG(37°) ([2]; 37°, modelling table) | n ([2]; 296 K (Table 4)) | ΔG^0 ([2]; 296 K (Table 4)) [kcal/mol] | Ksv [2, 5] | n ([2]; 303 K (Table 4)) | ΔG^0 ([2]; 303 K (Table 4)) [kcal/mol] | Ksv [2, 6] | n ([2]; 310 K (Table 4)) | r ([2]; 310 K (Table 4)) | ΔG^0 ([2]; 310 K (Table 4)) [kcal/mol] | Ksv [2, 7] | Binding distance/r ([2]; modelling table) | Number of binding sites/n ([2]; modelling table) | α-helix contents ([3]; 5:1 (Pesticide:HSA)) [%] | α-helix contents ([3]; 10:1 (Pesticide:HSA)) [%] | ΔG^0 ([2]; 296 K) [kcal/mol] | Kq ([2]; 296 K, pH 7.4) | further results
1 | CNC(=O)O/N=C/C(C)(C)SC [Aldicarb, aldicarb] | 0.5 | Highly | 72295.50723 | −24.42 | 0.823 ± 0.002 | -5.321 | 6.498 ± 0.153 10^4 M−1 | 0.837 ± 0.002 | -5.5786 | 6.999 ± 0.079 10^4 M−1 | 0.851 ± 0.002 | 2.623 | -5.8363 | 7.230 ± 0.167 10^4 M−1 | 2.623 | 0.8508 | – | – | – | – | Actual LD50 ([1]; Table 5): 0.5 mg/kg; Actual LD50 ([1]; Table 6): 0.5 mg/kg; Kd [2, 4]: 77.3 µM; Kd ([2]; 296 K (Table 4), read-out: Ka): 119 µM; Kd ([2]; 303 K (Table 4), read-out: Ka): 93.5 µM
2 | CNC(=O)O/N=C/C(C)(C)S(C)(=O)=O [Aldicarb-sulfone, aldicarb sulfone] | – | – | 39842.68547 | −17.29 | 0.582 ± 0.008 | -3.2622 | 2.797 ± 0.157 10^4 M−1 | 0.624 ± 0.003 | -3.6977 | 3.379 ± 0.129 10^4 M−1 | 0.654 ± 0.010 | 2.376 | -4.1334 | 3.984 ± 0.197 10^4 M−1 | – | 0.6544 | – | – | – | – | Kd ([2]; Ka (37°), 37°, modelling table): 1210 µM; Kd ([2]; Ka, 296 K (Table 4)): 3860 µM; Kd ([2]; Ka, 303 K (Table 4)): 2200 µM
3 | CNC(=O)Oc1ccc(N(C)C)c(C)c1 [Aminocarb, aminocarb] | 30 | Highly | 39050.24214 | −18.36 | – | – | – | – | – | – | – | – | – | – | 2.215 | 0.6985 | 49.862 | 49.082 | -3.7173 | 3.151 ± 0.089 10^12 M^−1s^−1 | Kd [2, 4]: 786 µM; Ksv ([2]; 296 K, pH 7.4): 3.151 ± 0.089 10^4 M^−1; n (number of binding sites) ([2]; 296 K, pH 7.4): 0.649 ± 0.005; Kd [2, 8]: 1760 µM; ΔG^0 ([2]; 303 K): -4.0531 kcal/mol; Kq ([2]; 303 K, pH 7.4): 3.409 ± 0.059 10^12 M^−1s^−1; Ksv ([2]; 303 K, pH 7.4): 3.409 ± 0.059 10^4 M^−1; n (number of binding sites) ([2]; 303 K, pH 7.4): 0.669 ± 0.006; Kd [2, 9]: 1250 µM; ΔG^0 ([2]; 310 K): -4.3891 kcal/mol; R (binding distance) ([2]; 310 K): 2.215 nm; Kq ([2]; 310 K, pH 7.4): 3.905 ± 0.179 10^12 M^−1s^−1; Ksv ([2]; 310 K, pH 7.4): 3.905 ± 0.179 10^4 M^−1; n (number of binding sites) ([2]; 310 K, pH 7.4): 0.699 ± 0.003; Kd [2, 10]: 786 µM; fluorescence of HSA quenched by pesticide ([2]; 310 K): quenched; ΔH^0 [2]: 10.487 kcal/mol; ΔS^0 [2]: 200.780 J · mol^−1 · K^−1
4 | CNC(=O)O/N=C(\C)C(C)S(C)(=O)=O (stereo not shown) [Butoxycarboxim, butoxycarboxim] | 458 | Moderately | 62644.83638 | −20.24 | – | – | – | – | – | – | – | – | – | – | 1.964 | 0.725 | 53.753 | 52.790 | -3.7366 | 2.888 ± 0.064 10^12 M^−1s^−1 | Ksv ([2]; 296 K, pH 7.4): 2.888 ± 0.064 10^4 M^−1; n (number of binding sites) ([2]; 296 K, pH 7.4): 0.658 ± 0.002; Kd [2, 8]: 1720 µM; ΔG^0 ([2]; 303 K): -4.2875 kcal/mol; Kq ([2]; 303 K, pH 7.4): 4.798 ± 0.112 10^12 M^−1s^−1; Ksv ([2]; 303 K, pH 7.4): 4.798 ± 0.112 10^4 M^−1; n (number of binding sites) ([2]; 303 K, pH 7.4): 0.679 ± 0.002; Kd [2, 9]: 832 µM; ΔG^0 ([2]; 310 K): -4.8384 kcal/mol; R (binding distance) ([2]; 310 K): 1.964 nm; Kq ([2]; 310 K, pH 7.4): 6.264 ± 0.074 10^12 M^−1s^−1; Ksv ([2]; 310 K, pH 7.4): 6.264 ± 0.074 10^4 M^−1; n (number of binding sites) ([2]; 310 K, pH 7.4): 0.725 ± 0.001; Kd [2, 10]: 382 µM; fluorescence of HSA quenched by pesticide ([2]; 310 K): quenched; ΔH^0 [2]: 19.556 kcal/mol; ΔS^0 [2]: 329.251 J · mol^−1 · K^−1
5 | CCC(C)c1ccccc1OC(=O)NC (stereo not shown) [Fenobucarb, fenobucarb] | 350 | Moderately | 50302.85806 | −15.31 | 0.535 ± 0.006 | -3.0858 | 3.803 ± 0.107 10^4 M−1 | 0.559 ± 0.004 | -3.3726 | 4.110 ± 0.183 10^4 M−1 | 0.567 ± 0.008 | 2.791 | -3.6597 | 5.030 ± 0.145 10^4 M−1 | 2.791 | 0.5672 | – | – | – | – | Actual LD50 ([1]; Table 5): 350 mg/kg; Actual LD50 ([1]; Table 6): 350 mg/kg; Kd ([2]; Ka (37°), 37°, modelling table): 2640 µM; Kd ([2]; Ka, 296 K (Table 4)): 5280 µM; Kd ([2]; Ka, 303 K (Table 4)): 3670 µM
6 | CNC(=O)O/N=C(\C[S+](C)[O-])C(C)(C)C (stereo not shown) [Thiofanox-sulfoxide] | – | – | – | – | – | – | – | – | – | – | – | – | – | – | – | – | 50.523 | 48.338 | -4.1427 | 3.284 ± 0.040 10^12 M^−1s^−1 | Ka (binding constant) ([2]; 296 K, pH 7.4): (1.127 ± 0.100) × 10^3 M^−1; Ksv ([2]; 296 K, pH 7.4): 3.284 ± 0.040 10^4 M^−1; n (number of binding sites) ([2]; 296 K, pH 7.4): 0.707 ± 0.009; ΔG^0 ([2]; 303 K): -4.5277 kcal/mol; Ka (binding constant) ([2]; 303 K, pH 7.4): (1.906 ± 0.103) × 10^3 M^−1; Kq ([2]; 303 K, pH 7.4): 4.237 ± 0.067 10^12 M^−1s^−1; Ksv ([2]; 303 K, pH 7.4): 4.237 ± 0.067 10^4 M^−1; n (number of binding sites) ([2]; 303 K, pH 7.4): 0.726 ± 0.005; ΔG^0 ([2]; 310 K): -4.913 kcal/mol; R (binding distance) ([2]; 310 K): 1.702 nm; Ka (binding constant) ([2]; 310 K, pH 7.4): (2.861 ± 0.176) × 10^3 M^−1; Kq ([2]; 310 K, pH 7.4): 5.339 ± 0.093 10^12 M^−1s^−1; Ksv ([2]; 310 K, pH 7.4): 5.339 ± 0.093 10^4 M^−1; n (number of binding sites) ([2]; 310 K, pH 7.4): 0.746 ± 0.006; ΔH^0 [2]: 12.144 kcal/mol; ΔS^0 [2]: 230.219 J · mol^−1 · K^−1
